Activity calls are given as the source filed them. The rule behind the calls is not given here.
Assays:
[1] = test system: Escherichia coli; test: Antibacterial activity against Escherichia coli ATCC 25922 assessed as growth inhibition after 18 hrs by colorimetric microdilution technique; assay type: functional; conditions: ATCC 25922, 18 h
[2] = test system: Staphylococcus aureus; test: Antibacterial activity against Staphylococcus aureus ATCC 25923 assessed as growth inhibition after 18 hrs by colorimetric microdilution technique; assay type: functional; conditions: ATCC 25923, 18 h
[3] = test system: Staphylococcus aureus; test: Antibacterial activity against Staphylococcus aureus ATCC 25923 assessed as diameter of growth inhibition zone at 0.25 mg/ml after 24 hrs by disk diffusion assay; assay type: functional; conditions: for zone of inhibition at 250 µg/mL: ATCC 25923, 24 h, read-out: DIZ
[4] = test system: Escherichia coli; test: Antibacterial activity against Escherichia coli ATCC 25922 assessed as diameter of growth inhibition zone at 0.5 mg/ml after 24 hrs by disk diffusion assay; assay type: functional; conditions: for zone of inhibition at 500 µg/mL: ATCC 25922, 24 h, read-out: DIZ
[5] = test system: Escherichia coli; test: Antibacterial activity against Escherichia coli ATCC 25922 assessed as diameter of growth inhibition zone at 0.25 mg/ml after 24 hrs by disk diffusion assay; assay type: functional; conditions: for zone of inhibition at 250 µg/mL: ATCC 25922, 24 h, read-out: DIZ
[6] = test system: Candida albicans; test: Antifungal activity against Candida albicans ATCC 90028; assay type: functional, organism-based
[7] = test system: Staphylococcus aureus; test: Antibacterial activity against Staphylococcus aureus ATCC 25923 assessed as diameter of growth inhibition zone at 1 mg/ml after 24 hrs by disk diffusion assay; assay type: functional; conditions: for zone of inhibition at 1000 µg/mL: ATCC 25923, 24 h, read-out: DIZ
[8] = test system: Staphylococcus aureus; test: Antibacterial activity against Staphylococcus aureus ATCC 25923 assessed as diameter of growth inhibition zone at 0.5 mg/ml after 24 hrs by disk diffusion assay; assay type: functional; conditions: for zone of inhibition at 500 µg/mL: ATCC 25923, 24 h, read-out: DIZ
[9] = test system: Escherichia coli; test: Antibacterial activity against Escherichia coli ATCC 25922 assessed as diameter of growth inhibition zone at 1 mg/ml after 24 hrs by disk diffusion assay; assay type: functional; conditions: for zone of inhibition at 1000 µg/mL: ATCC 25922, 24 h, read-out: DIZ
[10] = test system: Escherichia coli; test: Antibacterial activity against Escherichia coli ATCC 25922 assessed as diameter of growth inhibition zone at 10 ug/disk after 24 hrs by disk diffusion assay; assay type: functional, organism-based
[11] = test system: Staphylococcus aureus; test: Antibacterial activity against Staphylococcus aureus ATCC 25923 assessed as diameter of growth inhibition zone at 10 ug/disk after 24 hrs by disk diffusion assay; assay type: functional, organism-based

| Molecule | MIC [1] [µg/mL] | MIC [2] [µg/mL] | zone of inhibition at 250 µg/mL [3] [mm] | diameter of the inhibition zone (DIZ) [4] | diameter of the inhibition zone (DIZ) [5] | zone of inhibition at 1000 µg/mL [7] [mm] | zone of inhibition at 500 µg/mL [8] [mm] | diameter of the inhibition zone (DIZ) [9] | diameter of the inhibition zone (DIZ) [3] | diameter of the inhibition zone (DIZ) [7] | diameter of the inhibition zone (DIZ) [8] | also measured |
| --- | --- | --- | --- | --- | --- | --- | --- | --- | --- | --- | --- | --- |
| CCN(CC)[c+]1sc2c(s1)C(c1ccc(Cl)cc1)Oc1c(I)cc(I)cc1-2.F[B-](F)(F)F (stereo not given) | 15.6 | 0.97 | – | – | – | – | – | – | – | – | – | – |
| CCN(CC)[c+]1sc2c(s1)C(c1ccc(Cl)cc1)Oc1ccccc1-2.F[B-](F)(F)F (stereo not given) | 62.5 | 1.95 | 7.33 | inactive | inactive | 16.3 | 14.3 | inactive | – | – | – | Activity [6]: Active |
| CCN(CC)C(=S)SC1C(=O)c2cc(Br)cc(Br)c2OC1c1ccc(Cl)cc1 (stereo not given) | – | – | – | inactive | inactive | – | – | inactive | inactive | inactive | inactive | – |
| CCN(CC)[c+]1sc2c(s1)C(c1ccc(OC)cc1)Oc1ccc(Br)cc1-2.F[B-](F)(F)F (stereo not given) | 125 | 1.95 | – | – | – | – | – | – | – | – | – | – |
| CCN(CC)C(=S)SC1C(=O)c2cc(Br)ccc2OC1c1ccc(OC)cc1 (mixture of isomers) | – | – | – | inactive | inactive | – | – | inactive | inactive | inactive | inactive | – |
| CCN(CC)[c+]1sc2c(s1)C(c1ccc(Cl)cc1)Oc1c(I)cc(I)cc1-2.[O-][Cl+3]([O-])([O-])[O-] (stereo not given) | 7.81 | 1.95 | 8.33 | – | – | 16.7 | 14 | – | – | – | – | zone of inhibition at 500 µg/mL [4]: 8.33 mm; zone of inhibition at 250 µg/mL [5]: 7.66 mm; zone of inhibition at 1000 µg/mL [9]: 9.33 mm |
| CCN(CC)C(=S)SC1C(=O)c2cc(I)cc(I)c2OC1c1ccc(Cl)cc1 (stereo not given) | – | – | – | inactive | inactive | – | – | inactive | inactive | inactive | inactive | – |
| GENTAMICIN | – | – | – | – | – | – | – | – | – | – | – | inhibition zone (IZ) [10]: 15.8 mm; inhibition zone (IZ) [11]: 18.3 mm |
| CCN(CC)[c+]1sc2c(s1)C(c1ccc(OC)cc1)Oc1ccc(Br)cc1-2.[O-][Cl+3]([O-])([O-])[O-] (stereo not given) | 125 | 3.9 | 7.66 | – | – | 13.7 | 9.66 | – | – | – | – | zone of inhibition at 500 µg/mL [4]: 7.33 mm; zone of inhibition at 250 µg/mL [5]: 6.66 mm; zone of inhibition at 1000 µg/mL [9]: 7.66 mm |
| CCN(CC)[c+]1sc2c(s1)C(c1ccc(Cl)cc1)Oc1c(Br)cc(Br)cc1-2.F[B-](F)(F)F (stereo not given) | 7.81 | 1.95 | 17.7 | inactive | inactive | 21.3 | 18.7 | – | – | – | – | Activity [6]: Active; zone of inhibition at 1000 µg/mL [9]: 10.7 mm |
| CCN(CC)[c+]1sc2c(s1)C(c1ccc(Cl)cc1)Oc1ccc(Br)cc1-2.F[B-](F)(F)F (stereo not given) | 3.9 | 0.48 | – | – | – | – | – | – | – | – | – | – |
| CCN(CC)C(=S)SC1C(=O)c2cc(Br)ccc2OC1c1ccc(Cl)cc1 (stereo not given) | – | – | – | inactive | inactive | – | – | inactive | inactive | inactive | inactive | – |
| CCN(CC)[c+]1sc2c(s1)C(c1ccc(Cl)cc1)Oc1ccc(Br)cc1-2.[O-][Cl+3]([O-])([O-])[O-] (stereo not given) | 3.9 | 0.48 | 15 | – | – | 20.3 | 17.3 | – | – | – | – | zone of inhibition at 500 µg/mL [4]: 10.7 mm; zone of inhibition at 250 µg/mL [5]: 8.33 mm; zone of inhibition at 1000 µg/mL [9]: 11.7 mm |
| CCN(CC)C(=S)SC1C(=O)c2ccccc2OC1c1ccc(Cl)cc1 (mixture of isomers) | – | – | – | inactive | inactive | – | – | inactive | inactive | inactive | inactive | – |
